Marks after values point to notes of the source that are not given here.
Columns and labels:
Format in all cases: cell-based
CX3CR1 = molecular target: T1, CX3CR1 (Homo sapiens, UniProt P49238); test: NanoBiT β-arrestin-1 recruitment, receptor selectivity panel, CX3CR1; conditions: higher concentrations (3 μM, 10 μM); FIG. 3 sections B and C
T1 construct: expressed in transfected cells; host or cells: U87
T1 sequence (P49238 1-355): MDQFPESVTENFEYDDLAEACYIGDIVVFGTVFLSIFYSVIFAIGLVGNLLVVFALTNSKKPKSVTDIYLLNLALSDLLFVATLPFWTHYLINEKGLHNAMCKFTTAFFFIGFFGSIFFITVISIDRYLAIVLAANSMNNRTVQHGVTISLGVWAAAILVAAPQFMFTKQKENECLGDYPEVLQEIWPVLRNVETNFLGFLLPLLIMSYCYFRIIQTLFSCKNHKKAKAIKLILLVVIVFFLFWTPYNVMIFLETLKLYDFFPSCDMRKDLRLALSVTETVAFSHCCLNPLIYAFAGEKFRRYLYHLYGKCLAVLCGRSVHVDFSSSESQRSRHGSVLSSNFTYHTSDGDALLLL
Method: To further assess the selectivity profile of the compounds of the invention towards ACKR3, the ability to activate the 21 classical and 4 atypical chemokines receptors and related receptors was tested using the NanoBiT assay based β-arrestin-1 recruitment described previously. The 4 classical opioid receptors described above were also included in the experimental setup. The compounds WW-1 (conolidine) and WW-12 were tested at three different concentrations, 1 μM, 3 μM and 10 μM.
This possible off-target effect was further characterized by comparing the ability of the two molecules to activate receptors ACKR4, CX3CR1 and CCR3 with reference ligands for the receptors, namely CCL19, CX3CL1 and CCL13.
Ligand-induced β-arrestin recruitment to chemokine and opioid receptors was monitored by NanoLuc complementation assay (NanoBiT, Promega). […] Ligand-induced, β-arrestin to GPCRs was evaluated with a Mithras LB940 luminometer (Berthold Technologies, running on MicroWin 2010 5.19 software (Mikrotek Laborsysteme)) for 20 minutes.
For single dose screening experiments on all chemokine receptors(FIG. 3), the results are represented as percentage of signal monitored with 100 nM of one known agonist chemokine listed in the IUPHAR repository of chemokine receptor ligands which was added as positive control.

KOR = KOR (Homo sapiens, UniProt P41145); test: KOR calcium mobilization agonist/antagonist screen (CHO-RD-HGA16 cells); set-up: host or cells: CHO-RD-HGA16; conditions: single concentration; for Emax: CHO-RD-HGA16, agonist screen, control agonist U69,593; for KOR Calcium % U69, 593 Inhibition: antagonist screen, vs EC60 of U69,593
KOR, sequence (P41145 whole entry): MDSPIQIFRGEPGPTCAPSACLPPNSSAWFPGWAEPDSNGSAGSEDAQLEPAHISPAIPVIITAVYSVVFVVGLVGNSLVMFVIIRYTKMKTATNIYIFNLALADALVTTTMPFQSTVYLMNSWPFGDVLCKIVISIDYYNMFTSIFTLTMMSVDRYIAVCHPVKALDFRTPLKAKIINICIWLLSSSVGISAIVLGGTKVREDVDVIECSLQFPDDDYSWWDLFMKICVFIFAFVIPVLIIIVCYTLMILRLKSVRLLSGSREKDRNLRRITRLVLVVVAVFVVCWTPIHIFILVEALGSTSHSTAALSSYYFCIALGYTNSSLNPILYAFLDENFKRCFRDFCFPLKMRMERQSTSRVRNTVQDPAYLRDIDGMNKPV
Method: (§1) Compounds were evaluated for kappa (KOR), mu (MOR), and delta (DOR) opioid receptor agonist and antagonist activity in three individual cell lines overexpressing Gαq16 (CHO-RD-HGA16, Molecular Devices) and the human kappa, mu, and delta opioid receptors, respectively. The day before the assay, cells were plated into 96-well black-walled assay plates at 30,000 cells/well in Ham's F12 supplemented with 10% fetal bovine serum, and 100 units of penicillin and streptomycin. The cells were incubated overnight at 37° C., 5% CO2. Prior to the assay, Calcium 5 dye (Molecular Devices) was reconstituted according to the manufacturer's instructions. The reconstituted dye was diluted 1:40 in pre-warmed (37° C.) assay buffer (1×HBSS, 20 mM HEPES, 2.5 mM probenecid, pH 7.4 at 37° C.). Growth medium was removed and the cells were gently washed with 100 μL of pre-warmed (37° C.) assay buffer. The cells were incubated for 45 minutes at 37° C., 5% CO2 in 200 μL of the diluted Calcium 5 dye. For the agonist screen, a single concentration of each test compound and receptor-specific controls (U69,593, DAMGO, and DPDPE for KOR, MOR, and DOR, respectively) were prepared at 10× the desired final concentration in 1% DMSO/assay buffer, aliquoted into a 96-well polystyrene plate, and warmed to 37° C. After the dye-loading incubation period, pretreatment solution was added to each well (25 μL of 9% DMSO/assay buffer) and, after 15 min, the plate was read with a FlexStation II (Molecular Devices). Calcium-mediated changes in fluorescence were monitored every 1.52 seconds over a 60 second time period, with the FlexStation II adding 50 μL of test compounds at the 19 second time point (excitation at 485 nm, detection at 525 nm). Peak kinetic reduction (SoftMax, Molecular Devices) relative fluorescence units (RFU) were used to calculate % control agonist Emax with the equation % Emax=(test compound RFU/control agonist RFU)×100. For the antagonist screens, the same procedure was followed except that the pretreatment solution consisted of the test compounds (prepared at […] the desired final concentration in 9% DMSO/assay buffer) and the FlexStation added the EC60 concentration (prepared at 10× the desired final concentration in 1% DMSO/assay buffer) of each respective control agonist. Peak RFU were used to calculate % control EC60 inhibition with the equation % inhibition=((EC60 RFU−test compound RFU)/EC60 RFU)×100. When IC50 determinations were made, the same antagonist screen procedure was followed except that cells were pretreated with 8-pt concentration-response curves of the test compounds. Peak RFU were plotted against the log of compound concentration using non-linear regression analysis to generate IC50 values (GraphPad Prism). Each test sample was analyzed in duplicate in two independent experiments.

ACKR3 = ACKR3 (Homo sapiens, UniProt P25106); test: ACKR3-mediated uptake of Cy5-labeled BAM22 in U87-ACKR3 cells (imaging flow cytometry); set-up: expressed in transfected cells; host or cells: U87-ACKR3 (ACKR3-negative U87 as control); conditions: concentration-dependent, FIG. 7
ACKR3, sequence (P25106 whole entry): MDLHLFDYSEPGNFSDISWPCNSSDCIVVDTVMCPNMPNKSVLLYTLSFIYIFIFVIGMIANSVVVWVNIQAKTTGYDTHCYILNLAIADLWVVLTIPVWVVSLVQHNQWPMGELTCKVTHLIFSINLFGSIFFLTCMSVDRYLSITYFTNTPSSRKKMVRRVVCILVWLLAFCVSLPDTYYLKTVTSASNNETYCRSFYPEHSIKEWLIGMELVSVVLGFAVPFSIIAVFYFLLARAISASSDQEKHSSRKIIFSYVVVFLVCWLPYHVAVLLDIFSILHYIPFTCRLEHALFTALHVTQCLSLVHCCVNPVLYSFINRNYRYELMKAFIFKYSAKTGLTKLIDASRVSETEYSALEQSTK
Method: U87-ACKR3 cells were distributed into 96-well plates (2×10^5 cells per well in Opti-MEM). After 15-minute incubation at 37° C. with WW-1 or WW-12 or controls, Cy5-labeled BAM22 was added, incubated for 40 minutes at 37° C. and washed twice with FACS buffer. Dead cells were excluded using Zombie Green viability dye. Images of 1×10^4 in-focus living single cells were acquired with an ImageStream MKII imaging flow cytometer (Amnis, running on the INSPIRE Mark II software (EMD Millipore)) using 40× magnification (60× magnification for smNPCs). Samples were analyzed using Ideas6.2 software. The number of spots per cell was determined using a mask-based software wizard.

MOR = MOR (Homo sapiens, UniProt P35372); test: MOR calcium mobilization agonist/antagonist screen (CHO-RD-HGA16 cells); set-up: host or cells: CHO-RD-HGA16; conditions: single concentration; for Emax: CHO-RD-HGA16, agonist screen, control agonist DAMGO
MOR, sequence (P35372 whole entry): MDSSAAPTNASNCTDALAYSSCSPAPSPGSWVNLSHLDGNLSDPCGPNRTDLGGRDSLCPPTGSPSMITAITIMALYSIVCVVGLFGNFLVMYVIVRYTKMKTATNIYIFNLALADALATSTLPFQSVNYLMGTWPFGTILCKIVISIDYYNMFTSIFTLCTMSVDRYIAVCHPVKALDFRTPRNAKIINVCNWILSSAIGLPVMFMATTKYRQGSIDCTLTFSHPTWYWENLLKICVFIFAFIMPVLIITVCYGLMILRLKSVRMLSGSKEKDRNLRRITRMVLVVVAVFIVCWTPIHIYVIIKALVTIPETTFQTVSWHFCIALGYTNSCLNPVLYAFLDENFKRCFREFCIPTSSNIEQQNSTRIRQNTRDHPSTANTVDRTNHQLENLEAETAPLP
Method: as §1

Row | Compound | activation of CX3CR1 (β-arrestin-1 recruitment) in receptor panel (CX3CR1) | Emax (KOR) | KOR Calcium % U69, 593 Inhibition (KOR) | inhibition of uptake of Cy5-labelled BAM22 by ACKR3 (ACKR3) | Emax (MOR) | MOR Calcium % DAMGO Inhibition (MOR; antagonist screen, vs EC60 of DAMGO)
1 | C/C=C1/CN2CC[C@H]1C(=O)c1[nH]c3ccccc3c1C2 [WW-1, (4E,5R)-4-ethylidene-1,4,5,7-tetrahydro-2,5-ethanoazocino[4,3-b]indol-6(3H)-one] | weak activation | 9% | 11% | able to restrain the uptake | 0% | 3%
2 | C/C=C1/CN(CCCCC)CC[C@H]1C(=O)c1cc2ccccc2[nH]1 [WW-12, [(3E,4R)-3-ethylidene-1-pentylpiperidin-4-yl](1H-indol-2-yl)methanone] | weak activation | 7% | 69** % | able to restrain the uptake | 11% | 

From patent US20240059688A1, “CONOLIDINE ANALOGUES AS SELECTIVE ACKR3 MODULATORS FOR THE TREATMENT OF CANCER” (Luxembourg Institute of Health (LIH), priority 2020, published 2024)
